Assay results: patent publication US5830902A, “Quinuclidine derivative having tricyclic hetero condensed ring” (Yamanouchi Pharmaceutical Co., Ltd., priority 1995, dated 1998)
Counter-ions that a name gives are not always drawn. Like-named read-outs stand apart in the source and are kept apart here.

Experiments:
human squalene synthase = molecular target: T1, human squalene synthase (Homo sapiens, UniProt P37268); assay: Test on human squalene synthase inhibition (HepG2 microsomal fraction); type: biochemical
T1 construct: endogenous in cells; host or cells: HepG2 human hepatoma cells (microsomal fraction)
T1 sequence (P37268 1-417): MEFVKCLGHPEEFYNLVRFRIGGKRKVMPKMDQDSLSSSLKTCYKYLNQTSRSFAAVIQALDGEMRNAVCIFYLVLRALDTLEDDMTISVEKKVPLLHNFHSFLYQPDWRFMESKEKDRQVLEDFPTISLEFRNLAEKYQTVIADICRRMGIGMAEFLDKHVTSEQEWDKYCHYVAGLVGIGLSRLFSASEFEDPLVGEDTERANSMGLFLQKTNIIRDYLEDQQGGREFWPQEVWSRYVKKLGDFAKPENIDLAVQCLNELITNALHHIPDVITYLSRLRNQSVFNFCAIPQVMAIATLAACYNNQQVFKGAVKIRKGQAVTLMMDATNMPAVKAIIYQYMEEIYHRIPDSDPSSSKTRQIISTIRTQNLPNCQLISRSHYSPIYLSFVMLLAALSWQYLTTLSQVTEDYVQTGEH
Experimental: A. Test on human squalene synthase inhibition
(1) Preparation of squalene synthase from human hepatoma cells
Human hepatoma cells (HepG2 cells) were cultured using DMEM containing 10% FBS until a single layer was formed, and then the medium was replaced by DMEM supplemented with 10% human lipoprotein deficient serum (LPDS) to carry out 24 hours of culturing. The cells were washed twice with PBS, collected using a Rubber Policeman and subjected to centrifugation. The resulting precipitate was homogenized in five volumes of 50 mM Hepes buffer (pH 7.5) containing 5 mM EDTA and centrifuged at 20,000×g for 15 minutes. The supernatant was again subjected to the same centrifugation. The supernatant was subjected to 1 hour of centrifugation at 100,000×g, and the microsomes obtained were suspended in the same buffer and used in the test as a HepG2 squalene synthase fraction.
(2) Measurement of squalene synthase inhibiting activity
A dimethyl sulfoxide solution of each drug to be tested was added to a solution of the squalene synthase fraction prepared above (protein 10 ng, 50 mM Hepes buffer (pH 7.5)), 11 mM NaF, 5.5 mM MgCl2, 3 mM DTT, 1 mM NADPH, 1 mM pyrophosphate and 2.5 μM ^3 H-FPP, and the mixture was adjusted to a total volume of 0.2 ml and shaken at 30° C. for 20 minutes to effect the reaction. The reaction was terminated by adding 100 μl of 20% potassium hydroxide-50% ethanol solution, and the reaction solution was heated at 65° C. for 30 minutes. The un-saponified material was extracted with petroleum ether, and 1/3 volume thereof was subjected to measurement by a liquid scintillation counter. The ^3 H radioactivity of the un-saponified material was regarded as products down stream of squalene in the cholesterol biosynthesis system, and the squalene synthase inhibiting action was calculated by comparing ^3 H radioactivities of the test group and control group.
In addition, concentration of each compound of the present invention to inhibit 50% of squalene synthase (IC50 value) was obtained by calculation.

[1] = Cholesterol lowering action in hamster; type: in vivo; settings: male golden hamsters; 50 mg/kg in 0.5% methyl cellulose, administered by force; 5 days; blood 2 hours after final administration
Experimental: C. Cholesterol lowering action in hamster
Male golden hamsters (130 to 150 g) which have been treated by reversing night and day since 12 or more days before the commencement of administration were divided into groups 4 days before the administration in such a manner that the cholesterol value became the same among the groups. Each drug was prepared as a 0.5% methyl cellulose solution and administered by force in a dosage of 50 mg/kg. In this case, the liquid volume was 10 ml/kg.
The administration was carried out continuously for 4 days at around A.M. 11:00 under satiated condition and then on the fifth day after 16 hours of fasting. After 2 hours of the final administration, blood samples were collected from the abdominal vena cava under diethyl ether anesthesia and their cholesterol values were measured using an automatic analyzer (Hitachi 736).

[2] = tested on: enzyme located at a downstream stage of the cholesterol biosynthesis system; settings: background art; cited from earlier work

| Compound | IC50 (human squalene synthase) [nM] | Lowering ratio (cholesterol) [1] [%] | IC50 (human squalene synthase; squalene synthase derived from human hepatoma (HepG2) cells, 2.5 μM 3H-FPP, 30° C., 20 minutes, read-out: IC50 value of squalene synthase inhibiting activity) [nM] | desmosterol accumulation / cataracts [2] |
| --- | --- | --- | --- | --- |
| CN1c2ccccc2Sc2cc(COC3CN4CCC3CC4)ccc21.Cl (stereo not shown) [Example 17, 3-(10-Methylphenothiazin-3-ylmethoxy)quinuclidine hydrochloride] | 85 | 46 | – | – |
| F/C(COc1ccc2c(c1)[nH]c1ccccc12)=C1/CN2CCC1CC2 [Example 1, (E)-3-[2-(Carbazol-2-yloxy)-1-fluoroethylidene]quinuclidine hydrochloride] | – | 57 | 79 | – |
| CCN(CC)CCOc1ccc(C(O)(Cc2ccc(Cl)cc2)c2ccc(C)cc2)cc1 (stereo not shown) [triparanol] | – | – | – | accumulates desmosterol which causes the cataracts |
| C(/COc1ccc2c(c1)[nH]c1ccccc12)=C1/CN2CCC1CC2.Cl [Example 2, (Z)-3-[2-(Carbazol-2-yloxy)ethylidene]quinuclidine hydrochloride] | 59 | 39 | – | – |
